Legend:
Assay in all cases: microscale thermophoresis
[1] = target: T1, A. baumannii OmpA (OmpA-like peptidoglycan-binding domain) (Acinetobacter baumannii, UniProt Q6RYW5)
T1 construct: gene omp38; isolated periplasmic OmpA-like domain, residues 221-339; His6-SUMO tag cut by Ulp1; E. coli Rosetta(DE3)pLysS; RED-NHS labelled

[2] = target: T2, OmpA-like peptidoglycan-binding domain of R. rubrum PapS (Rhodospirillum rubrum, UniProt Q2RP23)
T2 construct: gene Rru_A3328; isolated C-terminal OmpA-like domain, residues 156-273; His6-SUMO tag cut by Ulp1; E. coli Rosetta(DE3)pLysS; RED-NHS labelled
From the text: microscale thermophoresis on OmpA-like peptidoglycan-binding domain of R. rubrum PapS | isolated OmpA-like domain of PapS bound mDAP in vitro, albeit with lower affinity

[3] = target: T3, OmpA-like peptidoglycan-binding domain of R. rubrum PapS (Rhodospirillum rubrum, UniProt Q2RP23, R223A); conditions: MST buffer 25 mM HEPES/NaOH pH 8, 50 mM NaCl, 0.1% Tween; 25 °C; 100 nM RED-NHS labelled protein; mDAP 1.5 µM to 50 mM
T3 construct: gene Rru_A3328; isolated C-terminal OmpA-like domain, residues 156-273; His6-SUMO tag cut by Ulp1; E. coli Rosetta(DE3)pLysS; RED-NHS labelled
T3 sequence (Q2RP23 entry or part of it R223A): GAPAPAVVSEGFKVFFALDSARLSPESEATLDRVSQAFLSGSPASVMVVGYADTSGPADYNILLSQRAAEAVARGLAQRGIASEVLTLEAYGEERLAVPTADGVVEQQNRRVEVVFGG

T2 sequence (Q2RP23 entry or part of it): as the sequence (Q2RP23 entry or part of it R223A) above, with A68R counted along it
T1 sequence (Q6RYW5 221-339): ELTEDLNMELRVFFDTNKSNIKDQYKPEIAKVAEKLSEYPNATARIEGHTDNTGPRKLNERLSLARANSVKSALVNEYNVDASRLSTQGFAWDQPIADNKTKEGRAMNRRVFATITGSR

## N[C@H](CCC[C@H](N)C(=O)O)C(=O)O [mDAP]
[1]
  Kd: 9 µM
[2]
  Kd: 2500 µM
[3]
  mDAP binding: In vitro analysis verified that the mutant domain no longer showed mDAP-binding activity

From PMC11369160, “An outer membrane porin-lipoprotein complex modulates elongasome movement to establish cell curvature in Rhodospirillum rubrum” (Nature Communications, 2024)
